Format in all cases: toxicity, cell-based
For one series, the system named is HEK-293T. The series is described as follows: Incucyte cell viability with HEK293T. To be noted: human, 10 µM, compound concentration 10 uM.
A further series concerns Fibroblast. In words: Incucyte cell viability with human fibroblast. To be noted: 10 µM, compound concentration 10 uM.
The subject of the next series is U2OS. The series is described as follows: Incucyte cell viability with U2OS. As to conditions: human, 10 µM, compound concentration 10 uM.
Note: unitless GR value; below 1 slowed growth and below 0 cell loss.

For the molecule `O=C(Nc1ccccc1Cl)c1cnc2ccc(C3CCNCC3)cn12.O=C(O)C(=O)O`, the “Growth Rate” value with HEK-293T (6 h, replicate number 1) is listed as -0.96; in the series with HEK-293T (12 h, replicate number 1), -0.83; in the series on HEK-293T (12 h, replicate number 2), -0.61; in the series with HEK-293T (18 h, replicate number 1), -0.53; in the series with HEK-293T (18 h, replicate number 2), -0.27; with HEK-293T (24 h, replicate number 1), -0.28. Also, the “Growth Rate” value in the series on HEK-293T (24 h, replicate number 2) was -0.03; in the series on Fibroblast (6 h, replicate number 2) it was -1; with Fibroblast (12 h, replicate number 2), -0.49; with Fibroblast (18 h, replicate number 1) it was -0.51; in the series with Fibroblast (18 h, replicate number 2), 0.05; in the series on Fibroblast (24 h, replicate number 1), -0.36. The “Growth Rate” value was 0.33 in the series with Fibroblast (24 h, replicate number 2); -1 in the series with U2OS (0 h, replicate number 2); -0.44 in the series on U2OS (6 h, replicate number 1); 0.06 in the series with U2OS (6 h, replicate number 2); 0.46 with U2OS (12 h, replicate number 1); 0.5 with U2OS (12 h, replicate number 2). In addition, the “Growth Rate” value in the series with U2OS (18 h, replicate number 1) amounted to 0.62; with U2OS (18 h, replicate number 2), 0.61; in the series on U2OS (24 h, replicate number 1) it was 0.64; with U2OS (24 h, replicate number 2) it was 0.59.
With `O=C(NNC(=O)c1ccc(CNS(=O)(=O)c2ccc(F)c(Cl)c2)cc1)c1ccccc1`, the “Growth Rate” value with HEK-293T (6 h, replicate number 1) came out at 0.34; with HEK-293T (6 h, replicate number 2), 0.59; in the series on HEK-293T (12 h, replicate number 1) it was 0.48; in the series on HEK-293T (12 h, replicate number 2) it was 0.64; with HEK-293T (18 h, replicate number 1), 0.31; in the series with HEK-293T (18 h, replicate number 2) it was 0.87. Moreover, the “Growth Rate” value in the series on HEK-293T (24 h, replicate number 1) was 0.36; with HEK-293T (24 h, replicate number 2), 0.83; in the series on Fibroblast (0 h, replicate number 1), -0.42; with Fibroblast (0 h, replicate number 2), -1; in the series on Fibroblast (6 h, replicate number 2), -0.76; in the series with Fibroblast (18 h, replicate number 1), 0.64. Further, the “Growth Rate” value with Fibroblast (18 h, replicate number 2) was determined as 0.85; in the series on U2OS (0 h, replicate number 1), 0.67; in the series with U2OS (0 h, replicate number 2), 0.85; with U2OS (18 h, replicate number 1) it was 0.97.
Consider `CC(C)(C)c1ccc(NC(=O)N2CCN(c3ncccc3Cl)CC2)cc1`, for which the “Growth Rate” value in the series on HEK-293T (6 h, replicate number 1) is -0.72; with HEK-293T (6 h, replicate number 2), -0.47; in the series with HEK-293T (12 h, replicate number 1), -0.41; with HEK-293T (12 h, replicate number 2), 0.06; in the series on HEK-293T (18 h, replicate number 1) it was -0.12; in the series with HEK-293T (18 h, replicate number 2), 0.09. The “Growth Rate” value in the series with HEK-293T (24 h, replicate number 1) is recorded as -0.21; in the series with HEK-293T (24 h, replicate number 2) it was 0.17; in the series with Fibroblast (0 h, replicate number 2), -0.81; in the series on Fibroblast (6 h, replicate number 1) it was 0.2; in the series with Fibroblast (18 h, replicate number 1), 0.84; in the series on Fibroblast (24 h, replicate number 2), 0.87. Further, the “Growth Rate” value with U2OS (12 h, replicate number 1) was 0.89; in the series with U2OS (18 h, replicate number 1), 0.88; in the series on U2OS (24 h, replicate number 1) it was 0.99.
For `CCN1CCN(Cc2ccc(NC(=O)c3ccc(C)c(NC(=O)c4cncc(-c5cccs5)c4)c3)cc2C(F)(F)F)CC1`, the “Growth Rate” value in the series with HEK-293T (6 h, replicate number 1) is reported as -0.97; with HEK-293T (6 h, replicate number 2) it was -0.99; in the series on HEK-293T (12 h, replicate number 1), -0.9; in the series on HEK-293T (12 h, replicate number 2), -0.83; with HEK-293T (18 h, replicate number 1) it was -0.73; in the series with HEK-293T (18 h, replicate number 2), -0.61. For the same molecule, the “Growth Rate” value in the series with HEK-293T (24 h, replicate number 1) is -0.6; in the series on HEK-293T (24 h, replicate number 2) it was -0.41; in the series on Fibroblast (0 h, replicate number 2) it was -0.99; in the series on Fibroblast (6 h, replicate number 2), -1; in the series on Fibroblast (12 h, replicate number 2), -0.76; in the series with Fibroblast (18 h, replicate number 1), -0.92. Further, the “Growth Rate” value with Fibroblast (18 h, replicate number 2) was -0.54; with Fibroblast (24 h, replicate number 1), -0.74; in the series with Fibroblast (24 h, replicate number 2), -0.41; with U2OS (0 h, replicate number 1) it was -0.74; with U2OS (0 h, replicate number 2), -0.23; with U2OS (6 h, replicate number 1) it was -0.87. In addition, the “Growth Rate” value with U2OS (6 h, replicate number 2) is recorded as -0.47; in the series with U2OS (12 h, replicate number 1) it was -0.52; in the series with U2OS (12 h, replicate number 2), -0.42; in the series on U2OS (18 h, replicate number 1), -0.59; in the series on U2OS (18 h, replicate number 2), -0.53; in the series with U2OS (24 h, replicate number 1), -0.6. The “Growth Rate” value in the series with U2OS (24 h, replicate number 2) was -0.55.

The values above are taken from ChEMBL document CHEMBL5303304, “EUbOPEN Chemogenomics Library - IncuCyte” (2023).
